Data taken from patent publication US10301288B2, “Kinase inhibitors” (Topivert Pharma Limited, priority 2013, dated 2019).
Where two headings read alike, the source gives them in different places.

Assays:
[1] = test system: d-U937 cells; test: (a) LPS-induced TNFα/IL-8 release in d-U937 cells; format: cell-based; conditions: Homo sapiens, dU937 cells
Protocol: U937 cells, a human monocytic cell line, are differentiated into macrophage-type cells by incubation with PMA (100 ng/mL) for 48 to 72 hr. Cells are pre-incubated with final concentrations of test compound for 2 hr and are then stimulated with LPS (0.1 μg/mL; from E. Coli: O111:B4, Sigma) for 4 hr. The supernatant is collected for determination of TNFα and IL-8 concentrations by sandwich ELISA (Duo-set, R&D systems). […] The relative 50% effective concentration (REC50) is determined from the resultant concentration-response curve. The inhibition of IL-8 production is calculated at each concentration of test compound by comparison with vehicle control.

[2] = test system: kinases; test: KinomeScan selectivity scores / number of hits; format: binding
Protocol: These assays may be conducted by DiscoverX (formerly Ambit; San Diego, Calif.). The percentage inhibition produced by incubation with a test compound may be calculated relative to the non-inhibited control.

[3] = test system: primary macrophages; test: (e) LPS-induced cytokine release in primary macrophages; format: cell-based; conditions: Homo sapiens, Primary macrophage, assay (e)
Protocol: PBMCs from healthy subjects are separated from whole blood using a density gradient (Lymphoprep, Axis-Shield Healthcare). Cells are incubated for 2 hrs and non-adherent cells removed by washing. To differentiate the cells to macrophages the cells are incubated with 5 ng/ml of GM-CSF (Peprotech) for 7 days under normal tissue culture conditions. Compounds are then added to the cells at the desired concentration for a 2 hour pre-treatment before stimulation with 10 ng/ml LPS for 24 hours. […] The IC50 is determined from the dose response curve.

[4] = Cryopreserved hepatocyte stability, dog; format: in vitro ADME; conditions: pooled cryopreserved hepatocytes, read-out: Mean intrinsic clearance
Protocol: (§1) Formulae Clint(tissue clearance) mL/min/kg=[0.693/t½ (min)]×[1/microsomal protein concentration mg/mL]×[mg microsomes/g liver]×[g liver/kg body weight] […] The incubations were performed at 37° C. with 100 μL, samples taken from the incubation, at 0, 10, 20, 45 and 90 minutes, and reactions terminated by addition of 100 μL of acetonitrile containing carbamazepine as analytical internal standard. […] Half-life values were calculated from the relationship T1/2 (min)=−0.693/λ • where λ was the slope of the Ln concentration vs time curve. • Standard compounds testosterone, midazolam and 4-methylumbelliferone are included in the assay design.
(§2) Clint(Tissue Clearance) mL/min/kg=[0.693/t½(min)]×[1/hepatocyte concentration (million cells/mL)]×[million cells/g liver]×[g liver/kg body weight] Clint(Hepatic clearance) mL/min/kg=hepatic blood flow×Clint/(hepatic blood flow+Clint) Hepatic extraction ratio(Eh)=Clint(Hepatic clearance) mL/min/kg/hepatic blood flow (mL/min/kg)

[5] = Hepatic microsomal stability, human; format: in vitro ADME; conditions: pooled liver microsomes, read-out: Mean intrinsic clearance
Protocol: • Microsomal stability assays were performed with incubations of test compounds at 0.1 μM (n=2, final DMSO concentration 0.25%), and carried out using pooled human, […], rat and Cynomolgus macaque hepatic microsomes from Xenotech (Lots 1210153, 0810143 and 1110042, respectively) at 0.25 mg protein/mL in the presence of cofactor, NADPH. The incubations were performed at 37° C. with 100 μL aliquots taken from the incubation, at 0, 2, 5, 10 and 20 minutes (and, in the case of Cynomolgus macaque hepatic microsomes, 40 minutes) and reactions terminated by addition of 100 μL of acetonitrile containing carbamazepine as analytical internal standard. […] Half-life values were calculated from the relationship T1/2 (min)=−0.693/λ • where λ was the slope of the Ln concentration vs time curve. • The in vitro intrinsic clearance, Clint (mL/min/kg), was calculated and scaled to hepatic extraction ratios using the following scaling parameters and formulae.
Formulae Clint(tissue clearance) mL/min/kg=[0.693/t½ (min)]×[1/microsomal protein concentration mg/mL]×[mg microsomes/g liver]×[g liver/kg body weight] […] Half-life values were calculated from the relationship T1/2 (min)=−0.693/λ • where λ was the slope of the Ln concentration vs time curve. • Standard compounds testosterone, midazolam and 4-methylumbelliferone are included in the assay design.

[6] = test system: HT29 cells; test: (d) IL-1β-induced IL-8 release in HT29 cells; format: cell-based; conditions: Homo sapiens, HT-29, read-out: IC50 for Inhibition of Cytokine Release, IL-8
Protocol: HT29 cells, a human colon adenocarcinoma cell line, are plated in a 96 well plate (24 hrs) and pre-treated with compounds at the desired concentration for 2 hours before addition of 5 ng/ml of IL-1β (Abeam) for 24 hours. Supernatants are harvested for IL-8 quantification by Sandwich ELISA (Duo-set, R&D System). The IC50 is determined from the dose response curve.

[7] = Chemical stability in solid form at 40° C. and 75% relative humidity; format: physicochemical
Protocol: The results of the study are reported in the table below (where chemical purity was assessed using HPLC).

[8] = molecular target: CYP2C9 (Homo sapiens (Human), UniProt P11712); test: CYP450 time-dependent inhibition, CYP2C9; format: in vitro ADME
Sequence of CYP2C9 (P11712 whole entry): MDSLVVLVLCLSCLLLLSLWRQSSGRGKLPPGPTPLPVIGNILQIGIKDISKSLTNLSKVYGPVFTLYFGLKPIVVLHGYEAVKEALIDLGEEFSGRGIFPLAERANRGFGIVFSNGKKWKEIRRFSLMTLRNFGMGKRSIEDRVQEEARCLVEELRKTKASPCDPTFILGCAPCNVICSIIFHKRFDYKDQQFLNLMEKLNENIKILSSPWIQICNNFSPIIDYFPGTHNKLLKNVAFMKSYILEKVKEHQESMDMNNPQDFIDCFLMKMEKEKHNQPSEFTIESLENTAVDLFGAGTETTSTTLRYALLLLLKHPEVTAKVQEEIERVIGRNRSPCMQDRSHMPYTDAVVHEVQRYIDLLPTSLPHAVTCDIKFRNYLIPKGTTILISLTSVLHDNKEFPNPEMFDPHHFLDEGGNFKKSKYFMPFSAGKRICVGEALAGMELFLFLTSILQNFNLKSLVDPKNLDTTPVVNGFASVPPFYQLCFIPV
Protocol: CYP450 time-dependent inhibition (TDI) assays were performed with test compound at six test concentrations, 0.062 μM to 15 μM (n=2). The test compounds was pre-incubated for 30 minutes with pooled human hepatic microsomes in 0.1 M Tris buffer, pH 7.4, at 37° C. in the presence of cofactor NADPH. A parallel series of incubations (n=2) were prepared with no pre-incubation. Probe substrates were then added (with additional cofactor) and further incubated for the times specified. Concentrations of probe substrates used in the incubations have been optimised to maintain first order reaction conditions.
Reactions were terminated with acetonitrile containing analytical internal standard (carbamazepine), samples then centrifuged to remove microsomal protein and analysed using optimised LC/MS-MS conditions. The MS data were normalised to internal standard and compared to the appropriate solvent controls to determine the amount of metabolite formed from the probe substrate relative to the “uninhibited” controls. The results are quoted as % inhibition.
Variation in probe turnover between plate wells means that inhibition values recorded below 10-15% may not be significant.

[9] = Cryopreserved hepatocyte stability, human; format: in vitro ADME; conditions: pooled cryopreserved hepatocytes, read-out: Mean intrinsic clearance
Protocol: as §1, §2

[10] = Analysis of metabolites in hepatocytes; format: in vitro ADME, rat, dog, Cynomolgus macaque, human; conditions: 10 μM, hepatocytes of four species, 0, 60 and 90 minutes
Protocol: Studies were conducted by BioFocus (Saffron Walden, UK) to determine the metabolic fate of the compound of Example 2 following incubation with rat, dog, Cynomolgus macaque or human hepatocytes.
Sample replicates were pooled prior to analysis.
Potential metabolites were identified using time-of-flight (TOF) and triple quadruple (TQ) mass spectrometers.

[11] = Cryopreserved hepatocyte stability, rat; format: in vitro ADME; conditions: pooled cryopreserved hepatocytes, read-out: Mean intrinsic clearance
Protocol: as §1, §2

IC50 ([1]; read-out: IC50 for Inhibition of Cytokine Release, IL-8): 0.5 nM
IC50 ([1]; read-out: IC50 for Inhibition of Cytokine Release, TNFα): 0.5 nM
IC50 ([3]; read-out: IC50 for inhibition of release of IL-6): 2.8 nM
IC50 ([3]; read-out: IC50 for inhibition of release of IL-8): 2.1 nM
hepatocyte CLint at 0.1 μM [4]: 46 µL/min/1e6 cells
microsomal CLint at 0.1 μM [5]: > 554 µL/min/mg
IC50 [6]: 3.3 nM
chemical purity (HPLC), solid form ([7]; 0 months): 98.52%
chemical purity (HPLC), solid form ([7]; 1 month, 40° C./75% RH): 96.88%
chemical purity (HPLC), solid form ([7]; 3 months, 40° C./75% RH): 94.32%
IC50 ([8]; CYP2C9, 0 min preincubation): > 15000 nM
IC50 ([8]; CYP2C9, 30 min preincubation): > 15000 nM
inhibition at 0 min, 15 µM ([8]; human, pooled human liver microsomes, pH 7.4, CYP2C9, 0 min preincubation, 15 μM, read-out: 15 μM % Inh): 35%
inhibition at 30 min, 15 µM ([8]; human, pooled human liver microsomes, pH 7.4, CYP2C9, 30 min preincubation, 15 μM, read-out: 15 μM % Inh): 37%
hepatocyte CLint at 0.1 μM [9]: 37 µL/min/1e6 cells
total metabolites identified in all studies [10]: nine
hepatocyte CLint at 0.1 μM [11]: 49 µL/min/1e6 cells
Structure (SMILES): C#Cc1cc(Nc2nccc(Oc3ccc(NC(=O)Nc4cc(C(C)(C)C)nn4-c4ccc(C)cc4)c4ccccc34)n2)cc(C(=O)NCCOCCOCCOC)c1 [Example 2, 3-((4-((4-(3-(3-(tert-Butyl)-1-(p-tolyl)-1H-pyrazol-5-yl)ureido)naphthalen-1-yl)oxy)pyrimidin-2-yl)amino)-5-ethynyl-N-(2-(2-(2-methoxyethoxy)ethoxy)ethyl)-benzamide]
KinomeScan S(1) number of hits ([2]; 50 nM): 0
KinomeScan S(10) number of hits ([2]; 50 nM): 8
KinomeScan S(35) number of hits ([2]; 50 nM): 32
KinomeScan S(1) number of hits ([2]; 500 nM): 4
KinomeScan S(10) number of hits ([2]; 500 nM): 39
KinomeScan S(35) number of hits ([2]; 500 nM): 92
